Structures can show the parent of a compound that is named as a salt.

The first assay addresses T1, human LTA4 hydrolase (Homo sapiens, UniProt P09960).
T1 construct: A human LTA4 hydrolase full-length cDNA clone (NM 000895) was purchased; His tag (6xHis of vector pDEST17); made in house; host or cells: Escherichia coli BL21-AI
T1 sequence (P09960 1-611): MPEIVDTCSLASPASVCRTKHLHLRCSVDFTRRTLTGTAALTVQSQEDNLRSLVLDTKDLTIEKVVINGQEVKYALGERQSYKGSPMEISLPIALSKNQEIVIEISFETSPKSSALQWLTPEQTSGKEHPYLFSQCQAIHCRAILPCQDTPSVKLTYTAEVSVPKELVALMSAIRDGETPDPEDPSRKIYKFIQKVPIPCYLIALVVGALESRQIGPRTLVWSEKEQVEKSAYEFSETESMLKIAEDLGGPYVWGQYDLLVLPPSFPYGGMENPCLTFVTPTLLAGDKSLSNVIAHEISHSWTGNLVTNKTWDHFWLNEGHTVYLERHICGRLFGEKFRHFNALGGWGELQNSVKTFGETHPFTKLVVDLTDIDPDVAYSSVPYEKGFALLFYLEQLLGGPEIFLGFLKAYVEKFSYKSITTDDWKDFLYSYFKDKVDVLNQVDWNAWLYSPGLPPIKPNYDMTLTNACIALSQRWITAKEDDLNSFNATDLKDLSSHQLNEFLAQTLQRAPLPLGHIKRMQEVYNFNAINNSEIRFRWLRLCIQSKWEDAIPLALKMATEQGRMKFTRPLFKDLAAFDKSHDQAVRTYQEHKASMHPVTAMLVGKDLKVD
Nature of the assay: In vitro assay testing inhibitory activity against purified recombinant human LTA4 hydrolase (LTB4 formed, LC-MS/MS).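 Further: 200 nM enzyme preincubated 10 min at room temperature with serial inhibitor dilutions in pH 8.0 Tris buffer with BSA and 10% DMSO, then 2 µM LTA4 added.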 The format is biochemical.
Conditions: not given
For `O=C(O)CCCN1CCCC[C@@H]1COc1ccc(Oc2ccc(Cl)cc2)cc1` [Example 81, 4-{(R)-2-[4-(4-Chloro-phenoxy)-phenoxymethyl]-piperidin-1-yl}-butyric acid hydrochloride], the IC50 is under 5 µM.
The same measure, in the same setting: then `c1ccc(CNc2ccc(OC[C@H]3CCCN3)cc2)cc1` [Example 48, Benzyl-[4-((R)-1-pyrrolidin-2-ylmethoxy)-phenyl]-amine], with under 5 µM.

The same assay, now with this note: recombinant human LTA4 hydrolase 200 nM, LTA4 2 μM; read-out: AvgIC50.
For `FC(F)(F)Oc1ccc(Oc2ccc(OC[C@H]3CCCN3)cc2)cc1` [Example 11, (R)-2-[4-(4-Trifluoromethoxy-phenoxy)-phenoxymethyl]-pyrrolidine hydrochloride], the IC50 was under 5 µM.
Same read-out and setting: next, `c1ccc(Oc2ccc(SC[C@H]3CCCN3)cc2)cc1` [Example 43, (R)-2-(4-Phenoxy-phenylsulfanylmethyl)-pyrrolidine]: under 5 µM; `O=C(c1ccc(I)cc1)c1ccc(OC[C@H]2CCCN2)cc1` [Example 127, (4-Iodo-phenyl)-[4-((R)-1-pyrrolidin-2-ylmethoxy)-phenyl]-methanone]: 5 to 20 µM.
Take `O=C(O)CCCN1CCC[C@H]1COc1ccc(Cc2ccc(-c3cccs3)cc2)cc1` [Example 118]: the IC50 was under 5 µM.
`O=C1CC[C@H](COc2ccc(Cc3ccccc3)cc2)N1` [Example 84, (R) 5-(4-Benzyl-phenoxymethyl)-pyrrolidin-2-one]: the IC50 is under 5 µM.
Turning to `c1csc(-c2ccc(Cc3ccc(OC[C@H]4CCCN4)cc3)cc2)n1` [Example 149, 2-{4-[4-((R)-1-Pyrrolidin-2-ylmethoxy)-benzyl]-phenyl}-thiazole hydrochloride salt], the IC50 was under 5 µM.
As for `COC(=O)CCN1CCC[C@@H]1COc1ccc(Cc2ccccc2)cc1` [Example 7, 3-[(R)-2-(4-benzyl-phenoxymethyl)-pyrrolidin-1-yl]-propionic acid methyl ester], the IC50 was under 5 µM.
Still for that read-out and setting: next, `c1ccc(-c2ccc(Cc3ccc(OC[C@H]4CCCN4)cc3)o2)cc1` [Example 163, (R)-2-[4-(5-Phenyl-furan-2-ylmethyl)-phenoxymethyl]-pyrrolidine]: under 5 µM; `Cc1ccc(Oc2ccc(OC[C@H]3CCCN3)cc2)cc1` [Example 14, (R)-2-(4-p-Tolyloxy-phenoxymethyl)-pyrrolidine hydrochloride]: under 5 µM; `O=C(O)CCCN1CCC[C@@H]1COc1ccc(-c2ccc(Cc3ccccc3)s2)cc1` [Example 171, 4-{(R)-2-[4-(5-Benzyl-thiophen-2-yl)-phenoxymethyl]-pyrrolidin-1-yl}-butyric acid]: under 5 µM.
On the same count and under the same terms, then `Fc1ccc(COc2ccc(OC[C@H]3CCCN3)cc2)cc1F` [Example 93, (R)-2-[4-(3,4-Difluoro-benzyloxy)-phenoxymethyl]-pyrrolidine Hydrogen chloride salt], with under 5 µM; and `Ic1ccc(Cc2ccc(OC[C@@H]3CCCN3)cc2)cc1` [Example 121, (S)-2-[4-(4-Iodo-benzyl)-phenoxymethyl]-pyrrolidine], with under 5 µM; and `O=C(O)CCCN1CCC[C@H]1COc1ccc(Cc2ccc(-c3ccccc3)s2)cc1` [Example 162, 4-{(S)-2-[4-(5-Phenyl-thiophen-2-ylmethyl)-phenoxymethyl]-pyrrolidin-1-yl}-butyric acid], with under 5 µM.
On the same count and under the same terms, then `O=C(O)CCCN1CCC[C@@H]1COc1ccc(Cc2ccc(Cl)cc2)cc1` [Example 65, 4-{(R)-2-[4-(4-Chloro-benzyl)-phenoxymethyl]-pyrrolidin-1-yl}-butyric acid], with under 5 µM.
In the case of `c1ccc(Cc2ccc(OCC[C@@H]3CCCCN3)cc2)cc1` [Example 71, (S)-2-[(4-Benzylphenoxy)ethyl]-piperidine hydrochloride], the IC50 is under 5 µM.
The same measure, in the same setting: next, `CC(=O)NCCCN1CCC[C@H]1COc1ccc(Oc2ccc(Cl)cc2)cc1` [Example 38, N-(3-{(S)-2-[4-(4-Chloro-phenoxy)-phenoxymethyl]-pyrrolidin-1-yl}-propyl)-acetamide HCl]: under 5 µM; `O=C(O)CN1CCCC[C@H]1COc1ccc(Oc2ccc(Cl)cc2)cc1` [Example 62, {(S)-2-[4-(4-Chloro-phenoxy)-phenoxymethyl]-piperidin-1-yl}-acetic acid hydrochloride]: under 5 µM.
On the same count and under the same terms, next, `c1csc(-c2ccc(Oc3ccc(OC[C@H]4CCCN4)cc3)cc2)c1` [Example 131, (R)-2-[4-(4-Thiophen-2-yl-phenoxy)-phenoxymethyl]-pyrrolidine-1-hydrogen chloride salt]: 5 to 20 µM; `C[C@@H](NC(=O)CCCN1CCC[C@H]1COc1ccc(Oc2ccc(Cl)cc2)cc1)c1ccccc1` [Example 139, 4-{(S)-2-[4-(4-Chloro-phenoxy)-phenoxymethyl]-pyrrolidin-1-yl}-N—[(R)-1-phenylethyl]-butyramide]: under 5 µM; `O=C(O)CCN1CCC[C@@H]1COc1ccc(Oc2ccccn2)cc1` [Example 168, 3-{2-[4-(Pyridin-2-yloxy)-phenoxymethyl]-pyrrolidin-1-yl}-propionic acid]: under 5 µM.
Same read-out and setting: next, `O=C(O)CN1CCC[C@@H]1COc1ccc(Oc2ccc(Cl)cc2)cc1` [Example 18, {(R)-2-[4-(4-Chloro-phenoxy)-phenoxymethyl]-pyrrolidin-1-yl}-acetic acid hydrochloride]: under 5 µM; `c1ccc(Cc2ccc(NC[C@H]3CCCN3)cc2)cc1` [Example 41, (4-Benzyl-phenyl)-(R)-1-pyrrolidin-2-ylmethyl-anine]: under 5 µM; `c1ccc(CN2CCNC(COc3ccc(Oc4ccccc4)cc3)C2)cc1` (centres unmarked) [Example 75, dihydrochloride]: under 5 µM.
Take `O=C1CC[C@@H](COc2ccc(Cc3ccccc3)cc2)N1` [Example 83, (S) 5-(4-Benzyl-phenoxymethyl)-pyrrolidin-2-one hydrochloride salt]: the IC50 is under 5 µM.
Still for that read-out and setting: next, `c1ccc(CO[C@H]2CN[C@H](COc3ccc(Oc4ccccc4)cc3)C2)cc1` [Example 85]: 5 to 20 µM; `c1ccc(Cc2ccc(OCCC3CCCCN3)cc2)cc1` (racemic) [Example 72, (+/−)-2-[(4-Benzylphenoxy)ethyl]-piperidine hydrochloride]: under 5 µM.
Same read-out and setting: next, `O=C(O)CCCN1CCC[C@@H]1COCc1ccc(Cc2ccccc2)cc1` [Example 157, 4-[(R)-2-(4-Benzyl-benzyloxymethyl)pyrrolidin-1-yl]butylic acid hydrochloride salt]: under 5 µM; `c1ccc(-c2ccc(Cc3ccc(OC[C@@H]4CCCN4)cc3)s2)cc1` [Example 161, (S)-2-[4-(5-Phenyl-thiophen-2-ylmethyl)-phenoxymethyl]-pyrrolidine hydrochloride salt]: under 5 µM; `c1cncc(-c2ccc(Cc3ccc(OC[C@H]4CCCN4)cc3)cc2)c1` [Example 126, 3-{4-[4-((R)-1-Pyrrolidin-2-ylmethoxy)-benzyl]-phenyl}-pyridine]: 5 to 20 µM.
Still for that read-out and setting: then `Clc1ccc(Oc2ccc(OC[C@@H]3CCCCN3Cc3ncno3)cc2)cc1` [Example 63, (S)-2-[4-(4-Chloro-phenoxy)-phenoxymethyl]-1-[1,2,4]oxadiazol-5-ylmethyl-piperidine hydrochloride], with under 5 µM; and `O[C@H]1CN[C@H](COc2ccc(Oc3ccccc3)cc2)C1` [Example 86, (3R,5S)-5-(4-Phenoxy-phenoxymethyl)-pyrrolidin-3-ol], with under 5 µM; and `O=C(O)CCN1CCC[C@H]1COc1ccc(Oc2ccc(C(F)(F)F)cc2)cc1` [Example 26, (S)-2-[4-(4-trifluoromethyl-phenoxy)-phenoxymethyl]-pyrrolidine-1-yl}propionic acid sodium salt], with under 5 µM.
On to `Cc1noc(CCCN2CCC[C@H]2COc2ccc(Cc3ccccc3)cc2)n1` [Example 32], for which the IC50 is under 5 µM.
Still for that read-out and setting: then `O=C(O)CCN1CCCC[C@H]1COc1ccc(Oc2ccc(Cl)cc2)cc1` [Example 59, 3-{(S)-2-[4-(4-Chloro-phenoxy)-phenoxymethyl]-piperidin-1-yl}-propionic acid hydrochloride], with under 5 µM; and `O=C(O)CCCN1CCC[C@H]1COc1ccc(Oc2ccc(C(F)(F)F)cc2)cc1` [Example 25], with under 5 µM; and `c1ccc2oc(Oc3ccc(OC[C@H]4CCCN4)cc3)nc2c1` [Example 99, (R)-2-[4-(Benzooxazol-2-yloxy)-phenoxymethyl]-pyrrolidine Hydrogen chloride salt], with under 5 µM.
Same read-out and setting: next, `Cc1ccc(Oc2ccc(OC[C@@H]3CCCN3)cc2)cc1` [compound 37]: under 5 µM.
Turning to `Clc1ccc(Cc2ccc(OCC3CCCCN3)cc2)cc1` (stereo in doubt) [Example 166, (R)-2-[4-(4-Chlorobenzyl)-phenoxymethyl]-piperidine hydrochloride], the IC50 was under 5 µM.
On the same count and under the same terms, next, `COc1cccc(COc2ccc(OC[C@H]3CCCN3)cc2)c1` [Example 97, (R)-2-[4-(3-Methoxy-benzyloxy)-phenoxymethyl]-pyrrolidine Hydrogen chloride salt]: 20 to 100 µM.

The values above are taken from patent US20070078263A1, “BIARYL SUBSTITUTED HETEROCYCLE INHIBITORS OF LTA4H FOR TREATING INFLAMMATION” (deCODE Chemistry, Inc., priority 2005, published 2007).
